Assay results from US20250320496A1, “MODULATION OF ABCB11 GENE TRANSCRIPTION USING ANTISENSE OLIGONUCLEOTIDES TARGETING REGULATORY RNAS” (CAMP4 Therapeutics Corporation, priority 2022, published 2025).
Strand notation (5' to 3'): a small letter for the sugar, then the base; units joined by * are phosphorothioate-linked, units joined directly phosphodiester-linked; [ ] holds rarer units or linkages, { } end groups; capitals alone tell only the bases. e = 2'-O-(2-methoxyethyl) (MOE); [5mC] = 5-methylcytosine; d = 2'-deoxy (DNA)

system: human ABCB11 mRNA; experiment: ASO treatment of primary human hepatocytes (PHH), ABCB11 mRNA by RT-qPCR normalized to B2M; assay type: cell-based; parameters: ABCB11 mRNA, dose titration: unit of the concentration uncertain; conditions: PHHs; CO-3986 and CO-4529 tested at 2.5 (unit uncertain), 5 μM, and 10 μM
Description: Primary human hepatocytes (PHH) were thawed using Lonza Human Cryopreserved Hepatocyte Thawing Medium and plated in 96-well collagen-coated plates (5.5-6.0×10^4 cells per well). Four hours later, the media was replaced with sterile-filtered QualGro™ Hepatocyte Culture Medium (BioIVT) containing antibiotic supplement, 0.3 mg/ml Matrigel® matrix (Corning®), and ASO at the desired concentration (e.g., 1.25 μM, 2.5 μM, 5 μM, or 10 μM). After 72 hrs., cells were harvested by aspirating media, washing once with phosphate-buffered saline (PBS), and lysed with 150 μl of Buffer RLT lysis buffer (Qiagen®). Plates were frozen at-80° C. during cell lysis. After thawing, total RNA was isolated using the Qiagen RNEasy kit as instructed by manufacturer. cDNA (random-primed) was synthesized from 10 μl of RNA using the LifeTech High Capacity cDNA Reverse Transcription kit. 2 μl of cDNA was used for reverse transcription-quantitative PCR (RT-qPCR) analyses using standard Taqman” reagents from Applied Biosystems™ to measure ABCB11 and CYP7A1 gene expression. Gene expression data was normalized to the housekeeper gene, beta-2-microglobulin (B2M).
To assess the ability of ASOs targeting ABCB11 regRNAs to modulate the expression of human ABCB11, 195 ASOs targeting the human ABCB11 regRNAs were synthesized. These initial ASOs were screened in PHHs at 5 μM to determine their efficacy in increasing human ABCB11 mRNA using quantitative PCR. This initial screen identified 10 ASOs that induced increased expression of ABCB11 mRNA by more than 1.5-fold (as compared to untreated PHHs).

Row | Substance | ABCB11 mRNA, dose titration
1 | CO-4529: ASO targeting eRNA RR64 of human ABCB11 (antisense eG*eT*eG*eG*eA*eG*e[5mC]*eA*eA*eA*e[5mC]*eT*eA*eG*eG*e[5mC]eA*e[5mC]*eT*eG) | dose-dependent increase

same assay, conditions: primary human hepatocytes, 5 μM ASO, normalized to untreated PHHs (UNT)

Row | Substance | ABCB11 mRNA FC (5 μM ASO vs. UNT) [fold change]
2 | CO-4491 (antisense eG*eA*eG*eG*eT*eT*eG*eA*e[5mC]*eA*eA*eA*eT*eA*eG*eG*eT*eG*eT*eG) | 1.101
3 | CO-4492 (antisense eG*eA*eT*eT*eT*eA*eA*eA*eG*eG*eA*e[5mC]*eT*eG*e[5mC]*eA*eT*eG*eG*e[5mC]) | 1.192
4 | CO-4493 (antisense eA*eT*eG*eG*eT*eG*eA*eG*eA*eG*eT*eG*eT*eG*eG*eT*eT*e[5mC]*eA*eA) | 1.178
5 | CO-4494 (antisense eG*e[5mC]*eA*eG*eG*eA*eT*eG*eA*eA*eG*eT*eT*eT*eA*e[5mC]*eA*eA*eG*eG) | 1.12
6 | CO-4495 (antisense eT*eG*eG*eT*eA*eT*e[5mC]*e[5mC]*eA*eT*eT*e[5mC]*eA*e[5mC]*eA*eA*eG*eG*eT*eG) | 1.07
7 | CO-4496 (antisense eG*eT*eA*e[5mC]*eT*eA*eG*eA*e[5mC]*eT*e[5mC]*eT*eG*e[5mC]*e[5mC]*eT*eG*eT*eG*eT) | 0.984
8 | CO-4497 (antisense eG*eG*eT*eG*eT*eT*eG*eA*eG*eA*eA*e[5mC]*eT*eA*eG*eA*eA*eT*eA*eT) | 1.024
9 | CO-4498 (antisense eG*eT*e[5mC]*e[5mC]*e[5mC]*eT*eG*eT*eG*eG*eT*eT*eA*e[5mC]*e[5mC]*eT*eA*eA*eA*eG) | 0.934
10 | CO-4499 (antisense eA*eA*eG*eG*eA*eA*eG*eG*eT*e[5mC]*eT*eA*eG*e[5mC]*eG*eG*eA*eG*eG*eT) | 1.202
11 | CO-4500 (antisense eA*eG*eA*e[5mC]*eT*eT*eT*eG*eG*e[5mC]*e[5mC]*eA*eG*eG*e[5mC]*eA*eA*eG*eA*e[5mC]) | 1.109
12 | CO-4501 (antisense eG*e[5mC]*eA*eT*eG*eG*eT*eA*eG*e[5mC]*eT*eA*eG*eT*eG*eA*eT*eA*eA*eT) | 1.023
13 | CO-4502 (antisense eA*eA*eA*eT*eGeT*eT*eG*eG*e[5mC]*e[5mC]e[5mC]*eT*eT*eG*eA*eG*eG*eA*eG) | 1.142
14 | CO-4503 (antisense eA*eT*eT*eG*eT*eA*eG*eG*eT*eG*e[5mC]eT*eG*e[5mC]*eG*eG*eG*eT*eA*eT) | 1.202
15 | CO-4504 (antisense eG*eT*eG*eT*e[5mC]*eT*eA*eT*eT*eT*eG*eG*eT*eA*eT*e[5mC]*eA*eG*eA*e[5mC]) | 1.232
16 | CO-4505 (antisense eG*eA*eG*e[5mC]*eA*e[5mC]*eA*e[5mC]*eA*eT*eT*e[5mC]*eA*e[5mC]*eT*e[5mC]*e[5mC]*eA*eT*eT) | 1.011
17 | CO-4506 (antisense eT*eG*e[5mC]*eA*eT*eT*eG*e[5mC]*eA*eT*eG*eT*eT*eG*eA*eG*e[5mC]*eT*eG*eG) | 1.169
18 | CO-4507 (antisense eG*eA*eA*eG*eA*eA*eT*eG*eG*eG*eA*eG*e[5mC]*eA*eA*eT*e[5mC]*e[5mC]*eG*e[5mC]) | 0.992
19 | CO-4508 (antisense eG*eT*eA*eG*eG*eA*eA*eG*eT*eT*eG*eA*eA*eT*eG*eA*eG*eT*eT*eG) | 1.185
20 | CO-4509 (antisense eT*eG*eG*eA*eT*eG*eT*eA*eG*eA*eT*eG*eA*eA*eT*eG*eG*e[5mC]*eA*eA) | 1.233
21 | CO-4510 (antisense eG*e[5mC]*e[5mC]*eA*e[5mC]*eA*e[5mC]*eG*eT*eT*eT*e[5mC]*eT*eT*eA*eT*eT*eG*e[5mC]*eG) | 1.084
22 | CO-4511 (antisense eG*eT*eG*eG*eG*eA*eG*eT*eG*eG*eT*eA*eA*eG*eA*eT*eT*eA*eG*e[5mC]) | 1.182
23 | CO-4512 (antisense eA*eA*e[5mC]*eG*eGeAeAeG*eG*eGeTeT*eAeA*eA*eG*eG*eT*eA*eT) | 1.087

Row | Substance | ABCB11 mRNA FC (5 μM ASO vs. UNT) [fold change]
24 | CO-4514 (antisense eG*e[5mC]*eG*eG*eG*eA*eT*eT*eA*eG*eA*eT*eG*eA*eG*eG*eT*e[5mC]*eT*eA) | 1.175
25 | CO-4515 (antisense eG*e[5mC]*e[5mC]*e[5mC]*eA*eA*eA*eT*eG*eA*eG*eG*eT*eG*eA*eT*eA*e[5mC]*eA*eA) | 0.978
26 | CO-4516 (antisense eA*eT*eG*eA*e[5mC]*eA*eT*eG*eA*eT*eA*eG*e[5mC]*eA*e[5mC]*e[5mC]*e[5mC]*eA*eA*e[5mC]) | 1.033
27 | CO-4517: parent ASO targeting a human ABCB11 regRNA, chemically modified to CO-7141 etc. (antisense e[5mC]*eT*eT*eA*eG*eG*eA*eG*eG*eA*eT*eT*eA*eT*eT*eT*eA*eA*e[5mC]*e[5mC]) | 0.914
28 | CO-4518 (antisense e[5mC]*eT*eA*e[5mC]*eT*eA*eG*eT*eT*eG*eT*eT*eA*e[5mC]*eA*e[5mC]*e[5mC]*eT*eT*eA) | 0.981
29 | CO-4519 (antisense eA*eG*eA*e[5mC]*eT*eG*eG*e[5mC]*eA*eT*eGeT*eG*eG*e[5mC]*eT*eT*e[5mC]*eA*e[5mC]) | 1.061
30 | CO-4520 (antisense eG*eG*eA*eA*eG*eA*eA*eG*eG*eT*eT*eA*eG*e[5mC]*eA*e[5mC]*eA*eG*eA*e[5mC]) | 0.945
31 | CO-4521 (antisense eG*e[5mC]*eA*eT*eT*eT*e[5mC]*eA*eG*eA*eG*e[5mC]*eA*e[5mC]*eA*eG*eA*eG*eT*eG) | 1.092
32 | CO-4522 (antisense e[5mC]*eA*e[5mC]*eT*eG*eG*e[5mC]*e[5mC]*e[5mC]*eA*eT*e[5mC]*eA*eA*eT*eT*eG*e[5mC]*eA*eT) | 1.027
33 | CO-4523 (antisense eT*e[5mC]*eT*eG*e[5mC]*eA*eA*eA*eT*eT*eA*eA*eG*eA*eA*eG*e[5mC]*eA*e[5mC]eT) | 1.037
34 | CO-4524 (antisense e[5mC]*eA*eG*eA*eG*eA*eA*eA*e[5mC]*e[5mC]*eT*eA*eA*eA*eA*eT*eT*eG*eA*eG) | 1.243
35 | CO-4525 (antisense eA*e[5mC]*e[5mC]*e[5mC]*eA*e[5mC]*eA*eT*eA*eG*eT*eT*eG*eT*eA*e[5mC]*eT*e[5mC]*eT*e[5mC]) | 0.995
36 | CO-4526 (antisense eG*e[5mC]*eT*eT*eG*eT*eG*eA*eT*eG*eT*e[5mC]*e[5mC]*eA*eG*eA*eT*eG*eA*e[5mC]) | 1.048
37 | CO-4527 (antisense eG*eA*eG*e[5mC]*eA*eT*e[5mC]*eA*eG*eG*eT*eA*e[5mC]*e[5mC]*eA*eT*eG*eA*e[5mC]*eA) | 0.97
38 | CO-4528 (antisense e[5mC]*eT*eG*eG*eG*eA*eT*eA*eG*eG*eG*eT*eG*eG*eA*eT*e[5mC]*eT*eA*e[5mC]) | 0.883
39 | CO-4529: ASO targeting eRNA RR64 of human ABCB11 (antisense eG*eT*eG*eG*eA*eG*e[5mC]*eA*eA*eA*e[5mC]*eT*eA*eG*eG*e[5mC]eA*e[5mC]*eT*eG) | 1.05
40 | CO-6669 (antisense eG*eT*eT*eT*eA*eG*eT*eT*eG*eA*e[5mC]*eT*eG*e[5mC]*eA*eG*eA*eG*eG*eG) | 1.291
41 | CO-6670 (antisense eT*eA*eG*eT*eT*eT*eA*eG*eT*eT*eG*eA*e[5mC]*eT*eG*e[5mC]*eA*eG*eA*eG) | 1.157
42 | CO-6671 (antisense eT*eT*e[5mC]*eT*eG*eT*eA*eG*eT*eT*eT*eA*eG*eT*eT*eG*eA*e[5mC]*eT*eG) | 1.163
43 | CO-6672 (antisense eA*eG*eG*eA*e[5mC]*eA*e[5mC]*eA*eA*eT*eT*eT*e[5mC]*eT*eG*eT*eA*eG*eT*eT) | 1.391
44 | CO-6673 (antisense eG*eA*eA*eG*eG*dA*d[5mC]*dA*d[5mC]*dA*dA*dT*dT*dT*d[5mC]*eT*eG*eT*eA*eG) | 1.313
